Data on 22 molecules can be found in patent publication US20090111798A1, “5,6-DIHYDRO-1H-PYRIDIN-2-ONE COMPOUNDS” (priority 2006, published 2009).

Chain of NS5B polymerase (P26663 2420-3010): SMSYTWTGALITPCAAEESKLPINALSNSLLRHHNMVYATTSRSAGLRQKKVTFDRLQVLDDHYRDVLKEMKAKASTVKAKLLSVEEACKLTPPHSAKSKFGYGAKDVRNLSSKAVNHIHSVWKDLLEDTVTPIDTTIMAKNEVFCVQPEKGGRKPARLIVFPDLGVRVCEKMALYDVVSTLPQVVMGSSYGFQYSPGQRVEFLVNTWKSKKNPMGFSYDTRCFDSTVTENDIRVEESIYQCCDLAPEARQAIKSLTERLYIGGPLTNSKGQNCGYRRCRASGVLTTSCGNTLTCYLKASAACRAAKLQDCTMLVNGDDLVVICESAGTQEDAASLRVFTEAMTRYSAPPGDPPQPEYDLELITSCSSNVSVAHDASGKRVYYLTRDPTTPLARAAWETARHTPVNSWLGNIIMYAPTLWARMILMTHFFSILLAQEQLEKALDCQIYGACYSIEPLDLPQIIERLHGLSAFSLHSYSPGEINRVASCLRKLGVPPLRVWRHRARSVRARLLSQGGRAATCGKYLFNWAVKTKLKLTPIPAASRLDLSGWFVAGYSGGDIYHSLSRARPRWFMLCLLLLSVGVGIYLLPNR

The test addresses NS5B polymerase (Hepatitis C virus genotype 1b, UniProt P26663). Put plainly: biochemical. To be noted: NS5B polymerase inhibition; 20 nM enzyme, 75 min at 28° C. As for the experimental part: Compounds were tested for HCV polymerase inhibition. Assays were performed in a 96-well streptavidin-coated FlashPlate using 20 nM enzyme, 0.5μ Ci of [α-^33P]GTP, 0.6 μM GTP, and 250 nM 5′biotinylated oligo (rG13)/poly rC in 20 mM Tris-HCl, pH 7.5, 5 mM MgCl2, 5 mM dithiothreitol, 0.1 g/L bovine serum albumin, and 100 U/mL RNAse inhibitor. The reaction was stopped by aspiration after 75 min at 28° C. and the plate was washed several times. After washing and drying the plate, incorporated radioactivity was counted using a Microbeta scintillation counter. IC50 values were calculated relative to the uninhibited control and inhibition data were fitted to a 4-parameter IC50 equation.
Turning to `NCCS(=O)(=O)Nc1ccc2c(c1)S(=O)(=O)N=C(C1=C(O)[C@@H]3CCC[C@@H]3N(Cc3ccc(F)cc3)C1=O)N2` (relative stereo) [Example 24, cis-2-Amino-ethanesulfonic acid {3-[1-(4-fluoro-benzyl)-4-hydroxy-2-oxo-2,4-a,5,6,7,7a-hexahydro-1H-[1]pyrindin-3-yl]-1,1-dioxo-1,4-dihydro-1λ^6 benzo[1,2,4]thiadiazin-7-yl}-amide], the IC50 lay within 0.02 to 0.1 µM.
Next, `CS(=O)(=O)Nc1ccc2c(c1)S(=O)(=O)N=C(C1=C(O)[C@@H]3CCC[C@@H]3N(Cc3ccc(F)cn3)C1=O)N2` (relative stereo) [Example 5, cis-N-{3-[1-(5-Fluoro-pyridin-2-ylmethyl)-4-hydroxy-2-oxo-2,4-a,5,6,7,7a-hexahydro-1H-[1]pyrindin-3-yl]-1,1-dioxo-1,4-dihydro-1λ^6-benzo[1,2,4]thiadiazin-7-yl}-methanesulfonamide]: 0.1 to 1 µM; `CC(C)N1C(=O)C(C2=NS(=O)(=O)c3cc(NS(C)(=O)=O)ccc3N2)=C(O)[C@@H]2CCC[C@@H]21` (relative stereo) [Example 55, cis-N-[3-(4-Hydroxy-1-isopropyl-2-oxo-2,4a,5,6,7,7a-hexahydro-1H-[1]pyrindin-3-yl)-1,1-dioxo-1,4-dihydro-1λ^6-benzo[1,2,4]thiadiazin-7-yl]-methanesulfonamide]: 0.1 to 1 µM; `CC(C)CCN1C(=O)C(C2=NS(=O)(=O)c3cc(NS(C)(=O)=O)ccc3N2)=C(O)C2CCCCCC21` (stereo not shown) [Example 33, N-{3-[4-Hydroxy-1-(3-methyl-butyl)-2-oxo-2,4-a,5,6,7,8,9,9a-octahydro-1H-cyclohepta[b]pyridin-3-yl]-1,1-dioxo-1,4-dihydro-1λ^6-benzo[1,2,4]thiadiazin-7-yl}-methanesulfonamide]: 0.02 to 0.1 µM.
Consider `CS(=O)(=O)Nc1ccc2c(c1)S(=O)(=O)N=C(C1=C(O)[C@H]3CCC[C@H]3N(Cc3ccc(F)cc3)C1=O)N2` [Example 26, (4aS,7aR)—N-{3-[1-(4-Fluoro-benzyl)-4-hydroxy-2-oxo-2,4-a,5,6,7,7a-hexahydro-1H-[1]pyrindin-3-yl]-1,1-dioxo-1,4-dihydro-1λ^6-benzo[1,2,4]thiadiazin-7-yl}-methanesulfonamide], for which the IC50 is 0.02 to 0.1 µM.
To `CS(=O)(=O)Nc1ccc2c(c1)S(=O)(=O)N=C(C1=C(O)[C@H]3CCCC[C@H]3N(Cc3ccc(F)cc3)C1=O)N2` [Example 31, (4aS, 8aR)—N-{3-[1-(4-Fluoro-benzyl)-4-hydroxy-2-oxo-1,2,4a,5,6,7,8,8a-octahydro-quinolin-3-yl]-1,1-dioxo-1,4-dihydro-1λ^6 benzo[1,2,4]thiadiazin-7-yl]-methanesulfonamide] belongs 0.02 to 0.1 µM; to `CS(=O)(=O)Nc1ccc2c(c1)S(=O)(=O)N=C(C1=C(O)[C@@H]3CCC[C@@H]3N(Cc3ccc(F)c(Cl)c3)C1=O)N2` [Example 11, (4aR,7aS)—N-{3-[1-(3-Chloro-4-fluoro-benzyl)-4-hydroxy-2-oxo-2,4-a,5,6,7,7a-hexahydro-1H-[1]pyrindin-3-yl]-1,1-dioxo-1,4-dihydro-1λ^6-benzo[1,2,4]thiadiazin-7-yl}-methanesulfonamide], less than 0.02 µM.
Take `Cc1cc(CN2C(=O)C(C3=NS(=O)(=O)c4cc(NS(C)(=O)=O)ccc4N3)=C(O)[C@@H]3CCC[C@@H]32)ccc1F` [Example 22, (4aR,7aS)—N-{3-[1-(4-fluoro-3-methyl-benzyl)-4-hydroxy-2-oxo-2,4-a,5,6,7,7a-hexahydro-1H-[1]pyrindin-3-yl]-1,1-dioxo-1,4-dihydro-1λ^6-benzo[1,2,4]thiadiazin-7-yl}-methanesulfonamide]: the IC50 is less than 0.02 µM.
`CC(C)(C)CCN1C(=O)C(C2=NS(=O)(=O)c3cc(NS(C)(=O)=O)ccc3N2)=C(O)C2CCCCCC21` (stereo not shown) [Example 32, N-{3-[1-(3,3-Dimethyl-butyl)-4-hydroxy-2-oxo-2,4-a,5,6,7,8,9,9a-octahydro-1H-cyclohepta[b]pyridin-3-yl]-1,1-dioxo-1,4-dihydro-1λ^6-benzo[1,2,4]thiadiazin-7-yl]-methanesulfonamide] registered an IC50 of 0.02 to 0.1 µM.
Next, `CS(=O)(=O)Nc1ccc2c(c1)S(=O)(=O)N=C(C1=C(O)[C@@H]3CCC[C@@H]3N(Cc3cccc(C(F)(F)F)c3)C1=O)N2` [Example 15, (4aR,7aS)—N-{3-[4-Hydroxy-2-oxo-1-(3-trifluoromethyl-benzyl)-2,4-a,5,6,7,7a-hexahydro-1H-[1]pyrindin-3-yl]-1,1-dioxo-1,4-dihydro-1λ^6-benzo[1,2,4]thiadiazin-7-yl}-methanesulfonamide]: 0.1 to 1 µM; `CS(=O)(=O)Nc1ccc2c(c1)S(=O)(=O)N=C(C1=C(O)[C@@H]3CCC[C@@H]3N(CC3CCC3)C1=O)N2` (relative stereo) [Example 47, cis-N-[3-(1-Cyclobutylmethyl-4-hydroxy-2-oxo-2,4-a,5,6,7,7a-hexahydro-1H-[1]pyrindin-3-yl)-1,1-dioxo-1,4-dihydro-1λ^6-benzo[1,2,4]thiadiazin-7-yl]-methanesulfonamide]: 0.02 to 0.1 µM.
Next, `O=C1C(C2=NS(=O)(=O)c3cc(C4CCCS4(=O)=O)ccc3N2)=C(O)[C@@H]2CCC[C@@H]2N1Cc1ccc(F)cc1` (mixture of isomers) [Example 45, (4aR,7aS)-3-[7-(1,1-Dioxo-tetrahydro-1λ^6-thiophen-2-yl)-1,1-dioxo-1,4-dihydro-1λ^6-benzo[1,2,4]thiadiazin-3-yl]-1-(4-fluoro-benzyl)-4-hydroxy-1,4a,5,6,7,7a-hexahydro-[1]pyrindin-2-one]: 0.02 to 0.1 µM; `CC(C)(C)CCN1C(=O)C(C2=NS(=O)(=O)c3cc(NS(C)(=O)=O)ccc3N2)=C(O)[C@H]2CCC[C@H]21` (relative stereo) [Example 18, cis-N-{3-[2-(3,3-Dimethylbutyl)-5-hydroxy-3-oxo-2-aza-bicyclo[4.3.0]non-4-en-4-yl]-1,1-dioxo-1,4-dihydro-1λ^6-benzo[1,2,4]thiadiazin-7-yl}-methanesulfonamide]: less than 0.02 µM; `CS(=O)(=O)Nc1ccc2c(c1)S(=O)(=O)N=C(C1=C(O)C3CCC=CC3N(Cc3ccc(F)cc3)C1=O)N2` (stereo not shown) [Example 16, N-{3-[1-(4-Fluoro-benzyl)-4-hydroxy-2-oxo-1,2,4a,5,6,8a-hexahydro-quinolin-3-yl]-1,1-dioxo-1,4-dihydro-1λ^6-benzo[1,2,4]thiadiazin-7-yl}-methanesulfonamide]: less than 0.02 µM.
Next, `CS(=O)(=O)Nc1ccc2c(c1)S(=O)(=O)N=C(C1=C(O)[C@@H]3CCC[C@@H]3N(Cc3cccc(F)c3)C1=O)N2` (relative stereo) [Example 8]: less than 0.02 µM.
`O=C1C(C2=NS(=O)(=O)c3cc(NS(=O)(=O)Cc4ccccc4)ccc3N2)=C(O)[C@@H]2CCC[C@@H]2N1Cc1ccc(F)cc1` [Example 52, (4aR,7aS)-N-{3-[1-(4-Fluoro-benzyl)-4-hydroxy-2-oxo-2,4a,5,6,7,7a-hexahydro-1H-[1]pyrindin-3-yl]-1,1-dioxo-1,4-dihydro-1λ^6-benzo[1,2,4]thiadiazin-7-yl}-C-phenyl-methanesulfonamide]: the IC50 lay within 0.1 to 1 µM.
Next, `CC(C)CCN1C(=O)C(C2=NS(=O)(=O)c3cc(NS(C)(=O)=O)ccc3N2)=C(O)[C@@H]2CCC[C@@H]21` [Example 28, (4aR,7aS)—N-{3-[4-Hydroxy-1-(3-methyl-butyl)-2-oxo-2,4-a,5,6,7,7a-hexahydro-1H-[1]pyrindin-3-yl]-1,1-dioxo-1,4-dihydro-1λ^6-benzo[1,2,4]thiadiazin-7-yl]-methanesulfonamide]: less than 0.02 µM.
Next, `CS(=O)(=O)Nc1ccc2c(c1)S(=O)(=O)N=C(C1=C(O)[C@@H]3CCC[C@@H]3N(Cc3ccc(F)cc3)C1=O)N2` [Example 12, (4aR,7aS)—N-{3-[1-(4-Fluoro-benzyl)-4-hydroxy-2-oxo-2,4-a,5,6,7,7a-hexahydro-1H-[1]pyrindin-3-yl]-1,1-dioxo-1,4-dihydro-1λ^6-benzo[1,2,4]thiadiazin-7-yl}-methanesulfonamide]: less than 0.02 µM; `CS(=O)(=O)Nc1ccc2c(c1)S(=O)(=O)N=C(C1=C(O)[C@@H]3CCC[C@@H]3N(Cc3ccc(C(F)(F)F)cc3)C1=O)N2` [Example 14, (4aR,7aS)—N-{3-[4-Hydroxy-2-oxo-1-(4-trifluoromethyl-benzyl)-2,4-a,5,6,7,7a-hexahydro-1H-[1]pyrindin-3-yl]-1,1-dioxo-1,4-dihydro-1λ^6 benzo[1,2,4]thiadiazin-7-yl}-methanesulfonamide]: 0.1 to 1 µM; `CS(=O)(=O)Nc1ccc2c(c1)S(=O)(=O)N=C(C1=C(O)C3CCCCCC3N(Cc3ccc(F)cc3)C1=O)N2` (stereo not shown) [Example 2, N-{3-[1-(4-Fluoro-benzyl)-4-hydroxy-2-oxo-2,4-a,5,6,7,8,9,9a-octahydro-1H-cyclohepta[b]pyridin-3-yl]-1,1-dioxo-1,4-dihydro-1λ^6-benzo[1,2,4]thiadiazin-7-yl}-methanesulfonamide]: 0.02 to 0.1 µM.
Next, `CS(=O)(=O)Nc1ccc2c(c1)S(=O)(=O)N=C(C1=C(O)[C@@H]3CCC[C@@H]3N(Cc3ccccn3)C1=O)N2` (relative stereo) [Example 4, cis-N-[3-(4-Hydroxy-2-oxo-1-pyridin-2-ylmethyl-2,4-a,5,6,7,7a-hexahydro-1H-[1]pyrindin-3-yl)-1,1-dioxo-1,4-dihydro-1λ^6-benzo[1,2,4]thiadiazin-7-yl]-methanesulfonamide]: 0.1 to 1 µM; `CS(=O)(=O)Nc1ccc2c(c1)S(=O)(=O)N=C(C1=C(O)[C@@H]3CCC[C@@H]3N(C3CCCCC3)C1=O)N2` (relative stereo) [Example 43, cis-N-[3-(1-Cyclohexyl-4-hydroxy-2-oxo-2,4-a,5,6,7,7a-hexahydro-1H-[1]pyrindin-3-yl)-1,1-dioxo-1,4-dihydro-1λ^6-benzo[1,2,4]thiadiazin-7-yl]-methanesulfonamide]: 0.1 to 1 µM.

A word on the IC50: it is the point on the concentration scale where inhibition reaches its midpoint. Low readings indicate higher potency, high ones lower potency.
